Source: US12053480B2, “Methods and pharmaceutical compositions for treating peripheral demyelinating diseases” (INSERM (INSTITUT NATIONAL DE LA SANTE ET DE LA RECHERCHE …, priority 2015, dated 2024)

Legend:
VDAC1 [1] = target: T1, VDAC1 (Mus musculus, UniProt Q60932); assay: Cytoplasmic calcium imaging (GCaMP2, multiphoton) in mSC of mouse sciatic nerve; format: in vivo; conditions: for presence of cytoplasmic calcium in mSC after crush: cytoplasmic GCaMP2, after nerve crush
T1 construct: strongly expressed in mSC mitochondria; from tissue; host or cells: myelinating Schwann cells (mSC) of the sciatic nerve of living mice (wild type; db/db and +/db in A10)
Protocol: (§1) Mice were anesthetized with isoflurane inhalation and placed under a Stemi2000 microscope (Zeiss). Incision area was shaved and cleaned using betadine solution. After incision, the gluteus superficialis and biceps femoris muscles were separated to reveal the cavity traversed by the sciatic nerve. The nerve was lift out using spatula and a thin glass needle filled with viral solution (8 μl) was introduced into the nerve with a micromanipulator. This solution was injected over 30 min with short pressure pulses using a Picospritzer III (Parker Hannifin) coupled to a pulse generator. After injection, the nerve was replaced into the cavity, the muscles were readjusted, and the wound was closed using clips (for further details see Gonzalez et al., 2014^3).
(§2) TRO19622 drug (Tocris bioscience, Ref. 2906) was diluted in ethanol to 20 mM and then, the solution was diluted in sterile PBS to 20 μM. TRO19622 treatments were realized by 3 mg/kg intraperitoneal (IP) injections of 20 mM solution or by intra sciatic nerve injections of 2 μl of drug solution 2 μM using a Hamilton syringe or a glass needle in sterile conditions 30 minutes before multiphoton image acquisitions or immunohistochemistry and demyelination studies respectively. Methyl jasmonate drug (Sigma-Aldrich, Ref. 392707) was diluted in 1 ml of sterile PBS to 1M or 3M. Methyl jasmonate treatments were realized by intra sciatic nerve injections of 1 μl of drug solution using a glass needle and micromanipulator in sterile conditions following the same virus injections procedure (see in vivo virus injection in the sciatic nerve method) two hours before multiphoton image acquisition. […] All drug concentrations were previously evaluated by Bordet et al, 2007^5; Goldin et al, 2008^6; Sharov et al, 2007^7.
(§3) First injected mouse was anesthetized with 5% of isoflurane a 1.5% of oxygen into the anesthesia system box (World Precision Instruments, Ref. EZ-B800) for 5 minutes. Anesthesia controls were realized^8. Then, mouse was placed in anesthesia mask and the incision area was shaved and cleaned with betadine and ethanol 70% solution. Incision was realized using a scalpel and the skin was retracted using forceps in order to expose the gluteus superficialis and bleeps femoris muscles. Next, the connective tissue that connects both muscles was cut and the sciatic nerve was gently lifted out using a spatula. A flexible bridge was slide below sciatic nerve and it was placed into a plastic first pool fixed to the bridge. Mouse was placed under the multiphoton microscope, the bridge was fixed using magnetic brackets to avoid physiological movement and mouse legs were fixed using clippers. Microscope dark box temperature is controlled to 37° C. during all time-lapse imaging. Finally, a second pool was fixed to the first pool using a drop of agarose low melting 3% (Promega, Ref. V2111) in Leibovitz's L15 medium (Gibco Life Technologies) and filled with deionized water to immerse the objectives 20× or 63× (Carl Zeiss Microscopy).
(§4) All time-lapse images were obtained with a multiphoton microscope Zeiss LSM 7 MP OPO. Mitochondria motility images were acquired by time-lapse recording of one image every five minutes during five hours at 920 nm. GCaMP2 and SypHer probe images were acquired by time-lapse recording of one image every fifteen minutes during five hours at 985 nm. Images were acquired to constant 1% of laser intensity to 100 msec of acquisition time with 512×512 resolution and 10 images of z-stack of 20 μm. Images were saved in Zeiss .czi format and processed using Image J program. For further details see Gonzalez et al., 201X^8
To characterize mitochondria physiology during the demyelination process we combined two in vivo methods. We used the nerve crush model to reliably induce demyelination in the mouse sciatic nerve and a viral approach^19 allowing the expression of different fluorescent probes selectively into mitochondria of myelinating Schwann cells (mSC) in mouse sciatic nerve. […]

phospho-c-jun = assay: Immunohistochemistry of nuclear phospho-c-jun in mSC after nerve crush or MJ; format: in vivo, mouse; conditions: for nuclear phospho-c-jun in mSC after nerve crush: immunohistochemistry, TRO19622 30 minutes prior crush
Protocol: The dissected nerve was washed in L15 medium, fixed in Zamboni's fixative (Stefanini et al., 1967^4) for 10 min at room temperature, washed in PBS, and incubated in successive glycerol baths (15, 45, 60, 66% in PBS) for 18 to 24 h each before freezing at −20° C. The nerves were cut in small pieces in 66% glycerol and the perineurium sheet removed. Small bundles of fibers were teased in double-distilled water on Superfrost slides, dried overnight at room temperature, and the slides stored at −20° C. For immunostaining, the teased fibers were incubated for 1 h at room temperature in blocking solution (10% goat serum, 0.2% TritonX100, and 0.01% sodium azide in PBS). Then, the samples were then incubated with anti-ECCD2 primary mouse antibody (1/100, BD biosciences, Ref. 610181), anti-phosphoS63-c-jun primary mouse antibody (1/200, BD Biosciences, Ref. 558036), anti-c-jun primary mouse antibody (1/200, BD Biosciences, Ref. 610326), anti-VDAC primary rabbit antibody (1/100, Cell Signaling, Ref. 4866) or/and MitoTracker Red (1/1000, Molecular Probes, Ref. M7515) in blocking solution overnight at 4° C. The next day, the samples were washed in PBS and incubated for 1 h at room temperature with secondary donkey antibodies coupled to Alexa488, Alexa 594 or Alexa647 (1/1600, Molecular probes) and TO-PRO-3 iodide (50 μM, Invitroge, Ref. T3605). Finally the samples were washed in PBS and mounted in Immu-mount (Thermo Scientific). Images were acquired at room temperature using a 20× or 40× objective, a Zeiss confocal microscope LSM710, and its associated software.
as §2
To go further we also selectively silenced VDAC1 in mSC and measured the expression level of nuclear phospho-c-jun by immunohistochemistry after nerve crush. […]

VDAC1 [2] = target: T1, VDAC1; assay: Mitochondrial calcium imaging (mito-GCaMP2, multiphoton) in mSC of mouse sciatic nerve, nerve crush model; format: in vivo; conditions: for mitochondrial calcium release in mSC after nerve crush: mito-GCaMP2, VDAC1 silenced or drug given before crush; for mSC mitochondria calcium concentration: non-crushed nerves, two hours after injections, compared to vehicle injection
Protocol: as §1, §2, §3, §4
To characterize mitochondria physiology during the demyelination process we combined two in vivo methods. We used the nerve crush model to reliably induce demyelination in the mouse sciatic nerve and a viral approach^19 allowing the expression of different fluorescent probes selectively into mitochondria of myelinating Schwann cells (mSC) in mouse sciatic nerve.

[3] = system: myelinating Schwann cells; assay: mSC demyelination morphology (confocal microscopy) four days after nerve crush; format: in vivo, mouse; conditions: for number of myelinating cell remaining after crush: four days after crush
Protocol: as §1, §2
Finally we also investigated the demyelination using typical defects induced in the cellular morphology of mSC. Nerves expressing control or VDAC1 shRNAs were crushed to induce demyelination and four days later, when demyelination is maximal, we analyzed the morphology of VDAC1-silenced mSC using confocal microscopy as described previously^19. mSC display long homogenous noodle-like morphology with a regular diameter but during demyelination, they acquire a heterogeneous morphology often alterning large structures (myelin ovoids) with thin processes and their extremities split in fine extensions.

mSC mitochondria [4] = assay: Mitochondrial motility imaging (mito-dsRed2) in mSC of mouse sciatic nerve; format: in vivo; conditions: for loss of mitochondrial motility after nerve crush: 5 hours after nerve injury, TRO19622 30 minutes before crush
Protocol: as §1, §2, §3
as §4, with “Images were saved in Zeiss .czi format and processed using Image J program. For further details see Gonzalez et al., 201X^8” left out

[5] = system: phospho-ERK1/2, phospho-p38, phospho-JNK and phospho-c-jun; assay: Western blot of demyelination signaling pathways in sciatic nerve after crush or MJ; format: in vivo, mouse; conditions: nerves not crushed; 4 or 12 hours after treatment
Protocol: as §2

[6] = system: phospho-bcl2, cleaved caspase-3; conditions: after MJ treatment
Protocol: To investigate the signaling pathways induced by mitochondrial calcium release, sciatic nerves were treated with vehicle or TRO19622 before crush or with MJ without crush and phosphorylation-activated pathways were determined by western blot 4 hours or 12 hours after nerve crush or MJ treatment. […] While it is known that SC demyelination is not due to cell death but to a dedifferentiation process, we nevertheless checked mitochondria-related cell death factors in crushed or MJ treated nerves.

mSC mitochondria [7] = assay: Mitochondrial pH imaging (mito-SypHer) in mSC of mouse sciatic nerve; format: in vivo
Protocol: as §1, §2
First injected mouse was anesthetized with 5% of isoflurane a 1.5% of oxygen into the anesthesia system box (World Precision Instruments, Ref. EZ-B800) for 5 minutes. Anesthesia controls were realized^8. Then, mouse was placed in anesthesia mask and the incision area was shaved and cleaned with betadine and ethanol 70% solution. […]

T1 sequence (Q60932 14-296): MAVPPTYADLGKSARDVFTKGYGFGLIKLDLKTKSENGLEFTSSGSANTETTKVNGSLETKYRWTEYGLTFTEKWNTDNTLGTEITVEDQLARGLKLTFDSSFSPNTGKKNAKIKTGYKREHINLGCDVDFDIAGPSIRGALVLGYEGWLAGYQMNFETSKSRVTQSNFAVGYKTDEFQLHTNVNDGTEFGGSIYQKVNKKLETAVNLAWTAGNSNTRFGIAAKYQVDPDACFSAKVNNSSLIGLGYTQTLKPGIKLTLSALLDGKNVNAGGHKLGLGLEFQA

In the case of “VDAC1 shRNA2: VDAC1 shRNA sequence 2 GTTGGCTATAAGACGGATGAACT (Sigma-Aldrich, Ref. #TRCN0000012391), expressed from AAV vector (expressed from AAV vector)”, the “presence of cytoplasmic calcium in mSC after crush” value (VDAC1 [1]) was “more modest”, the “nuclear phospho-c-jun in mSC after nerve crush” value (phospho-c-jun) was “strong reduction” and the “mitochondrial calcium release in mSC after nerve crush” value (from here on “mitochondrial calcium release in mSC”) (VDAC1 [2]) was “significantly reduced”. For the same compound, the “number of myelinating cell remaining after crush” value [3] was “significant increase” and the “loss of mitochondrial motility after nerve crush” value (mSC mitochondria [4]) was “significantly prevented”.
CC/C=C\CC1C(=O)CCC1CC(=O)OC (centres unmarked) [MJ, methyl jasmonate] was tested, and the “phosphorylation-activated pathways and phospho-c-jun” value [5] was “significant increase”, the “calcium presence in the cytoplasm” value (VDAC1 [1]; MJ treatment, non-crushed nerves) was “increased” and the nuclear phospho-c-jun (phospho-c-jun; nerves treated with MJ) was “robust increase”. The “phospho-bcl2 and cleaved caspase-3 levels” value [6] was “Neither phospho-bcl2 nor cleaved caspase-3 levels were increased”, the “mSC mitochondria calcium concentration” value (VDAC1 [2]) was “sharply decreased” and the “mSC mitochondria calcium concentration” value (VDAC1 [2]; listed as methyl jasmonate) was “induced mitochondrial calcium release”. For the same compound, the “number of demyelinating cells” value ([3]; non-crushed sciatic nerves) was “significant increase”, the mitochondrial motility (mSC mitochondria [4]; without crush) was “decreased” and the “mitochondrial pH” value (mSC mitochondria [7]; non-crushed nerves) was “increase”.
With “VDAC1 shRNA3: VDAC1 shRNA sequence 3 ACCAGGTATCAAACTGACGTTCT (Sigma-Aldrich, Ref. #TRCN0000012392), expressed from AAV vector (expressed from AAV vector)” the “part of the calcium appearing in the cytoplasm after nerve crush that is not abolished (non-mitochondrial origin)” value (VDAC1 [1]; after nerve crush with VDAC1 silenced or blocked) was 13%, the “presence of cytoplasmic calcium in mSC after crush” value (VDAC1 [1]) was “strongly reduced” and the “nuclear phospho-c-jun in mSC after nerve crush” value (phospho-c-jun) was “strong reduction”. The “mitochondrial calcium release in mSC” value (VDAC1 [2]) was “completely inhibited”, the “mitochondrial calcium release in mSC” value (VDAC1 [2]; listed as VDAC shRNA3) was “completely abolished” and the “number of myelinating cell remaining after crush” value [3] was “significant increase”. For the same compound, the “loss of mitochondrial motility after nerve crush” value (mSC mitochondria [4]) was “significantly prevented”, the “changes induced by nerve crush in mitochondrial motility not abrogated” value (mSC mitochondria [4]; after nerve crush) was 20% and the “changes induced by nerve crush in mitochondrial pH not abrogated” value (mSC mitochondria [7]; after nerve crush) was 12%.
